From ChEMBL document CHEMBL1130586 (Bioorg Med Chem Lett, 1998)

Key:
[1] = target: Histamine H1 receptor (Cavia porcellus) (UniProt P31389); test: Relative potency against Histamine H1 receptor in guinea pig ileum.; type: functional, tissue-based
[2] = target: Histamine H2 receptor (Cavia porcellus) (UniProt P47747); test: Compound was tested for agonist activity against histamine H2 receptor of guinea pig atrium; type: functional, tissue-based; conditions: Cardiac atrium
Histamine H1 receptor [3] = target: T1, Histamine H1 receptor (Cavia porcellus, UniProt P31389); test: Contractile effects antagonized by mepyramine (0.3-100 nM) against Histamine H1 receptor in guinea pig ileum; type: functional, tissue-based; conditions: read-out: pA2 (converted)
T1 sequence (P31389 whole entry): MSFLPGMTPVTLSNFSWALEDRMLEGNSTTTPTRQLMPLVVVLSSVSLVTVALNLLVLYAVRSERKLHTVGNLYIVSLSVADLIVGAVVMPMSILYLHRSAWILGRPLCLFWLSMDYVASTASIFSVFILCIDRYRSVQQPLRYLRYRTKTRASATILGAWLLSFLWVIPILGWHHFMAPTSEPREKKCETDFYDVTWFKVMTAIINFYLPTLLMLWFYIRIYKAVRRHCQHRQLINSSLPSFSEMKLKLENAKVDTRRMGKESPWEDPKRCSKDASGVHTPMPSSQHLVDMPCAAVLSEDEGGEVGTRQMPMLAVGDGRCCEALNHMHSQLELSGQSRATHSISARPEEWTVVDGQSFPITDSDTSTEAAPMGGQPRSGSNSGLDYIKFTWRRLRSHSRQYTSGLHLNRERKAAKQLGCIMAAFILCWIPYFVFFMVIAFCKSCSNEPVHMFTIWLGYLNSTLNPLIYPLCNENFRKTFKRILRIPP

[4] = target: Histamine H1 receptor (Cavia porcellus) (UniProt P31389); test: Partial agonist activity against Histamine H1 receptor in guinea pig ileum.; type: functional, tissue-based
[5] = target: Histamine H1 receptor (Cavia porcellus) (UniProt P31389); test: Compound was tested for binding affinity against guinea pig ileum; type: tissue-based
[6] = target: Histamine H1 receptor (Cavia porcellus) (UniProt P31389); test: Partial agonist activity with mepyramine against Histamine H1 receptor in guinea pig ileum.; type: functional, tissue-based
Histamine H3 receptor = Histamine H3 receptor (Cavia porcellus, UniProt Q9JI35); test: Compound was tested for the agonist activity against histamine H3 receptor of guinea pig ileum; type: functional, tissue-based; conditions: read-out: pA2 (converted)
Sequence of Histamine H3 receptor (Q9JI35 whole entry): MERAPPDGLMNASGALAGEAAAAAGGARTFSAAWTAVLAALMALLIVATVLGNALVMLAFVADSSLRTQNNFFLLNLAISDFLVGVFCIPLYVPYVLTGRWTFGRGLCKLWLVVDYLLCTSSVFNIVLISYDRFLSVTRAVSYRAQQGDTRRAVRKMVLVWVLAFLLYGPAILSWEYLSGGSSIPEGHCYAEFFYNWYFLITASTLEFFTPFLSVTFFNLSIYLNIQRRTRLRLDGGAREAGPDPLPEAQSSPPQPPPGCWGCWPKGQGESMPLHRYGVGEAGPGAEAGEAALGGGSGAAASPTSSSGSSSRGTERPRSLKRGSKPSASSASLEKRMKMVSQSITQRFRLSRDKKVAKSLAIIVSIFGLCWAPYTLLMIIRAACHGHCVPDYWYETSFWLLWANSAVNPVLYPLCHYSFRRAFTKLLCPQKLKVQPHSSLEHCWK

Histamine H1 receptor [7] = target: T1, Histamine H1 receptor; test: Compound was tested for the contractile effects antagonized by mepyramine (1-1000 nM) against Histamine H1 receptor of guinea pig aorta.; type: functional; conditions: read-out: pA2 (converted)
[8] = target: Muscarinic acetylcholine receptor M3 (Cavia porcellus, UniProt Q8VH26); test: Compound was tested for its agonist activity against M3-acetylcholine receptor of guinea pig ileum.; type: functional, tissue-based; conditions: read-out: pA2 (converted)
Sequence of Muscarinic acetylcholine receptor M3 (Q8VH26 whole entry): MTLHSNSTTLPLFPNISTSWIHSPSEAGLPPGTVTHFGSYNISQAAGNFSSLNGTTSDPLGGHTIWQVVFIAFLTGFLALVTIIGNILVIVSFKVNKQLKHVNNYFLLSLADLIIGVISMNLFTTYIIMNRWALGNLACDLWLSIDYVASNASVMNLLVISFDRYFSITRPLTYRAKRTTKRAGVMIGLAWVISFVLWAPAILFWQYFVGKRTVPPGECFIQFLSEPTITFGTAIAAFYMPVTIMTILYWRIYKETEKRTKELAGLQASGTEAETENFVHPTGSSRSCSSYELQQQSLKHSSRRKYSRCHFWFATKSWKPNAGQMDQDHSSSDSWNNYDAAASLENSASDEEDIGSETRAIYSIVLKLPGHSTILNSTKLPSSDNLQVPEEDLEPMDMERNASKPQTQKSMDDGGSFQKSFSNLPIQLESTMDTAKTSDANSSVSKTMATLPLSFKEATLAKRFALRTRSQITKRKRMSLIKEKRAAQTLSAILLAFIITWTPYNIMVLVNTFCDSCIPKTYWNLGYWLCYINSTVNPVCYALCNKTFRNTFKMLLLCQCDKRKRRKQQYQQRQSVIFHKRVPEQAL

[9] = target: Histamine H1 receptor (Cavia porcellus) (UniProt P31389); test: Relative potency against Histamine H1 receptor of guinea pig aorta; type: functional, tissue-based
[10] = target: Histamine H1 receptor (Cavia porcellus) (UniProt P31389); test: Compound was tested for its partial agonist activity in the presence of 1 nM mepyramine against Histamine H1 receptor in guinea pig ileum.; type: functional, tissue-based
[11] = target: Histamine H1 receptor (Cavia porcellus) (UniProt P31389); test: Compound was tested for its partial agonist activity in the presence of 10 nM mepyramine against Histamine H1 receptor in guinea pig ileum.; type: functional, tissue-based
[12] = target: Histamine H1 receptor (Cavia porcellus) (UniProt P31389); test: Compound was tested for its partial agonist activity in the presence of 100 nM mepyramine against Histamine H1 receptor in guinea pig ileum.; type: functional, tissue-based
[13] = target: Histamine H1 receptor (Cavia porcellus) (UniProt P31389); test: Partial agonist activity against Histamine H1 receptor in guinea pig aorta; type: functional, tissue-based
[14] = target: Histamine H1 receptor (Cavia porcellus) (UniProt P31389); test: Compound was tested for its […] in the presence of mepyramine (1-1000 nM) against Histamine H1 receptor of guinea pig aorta.; type: functional

Sequence of Histamine H2 receptor (Cavia porcellus) (P47747 whole entry): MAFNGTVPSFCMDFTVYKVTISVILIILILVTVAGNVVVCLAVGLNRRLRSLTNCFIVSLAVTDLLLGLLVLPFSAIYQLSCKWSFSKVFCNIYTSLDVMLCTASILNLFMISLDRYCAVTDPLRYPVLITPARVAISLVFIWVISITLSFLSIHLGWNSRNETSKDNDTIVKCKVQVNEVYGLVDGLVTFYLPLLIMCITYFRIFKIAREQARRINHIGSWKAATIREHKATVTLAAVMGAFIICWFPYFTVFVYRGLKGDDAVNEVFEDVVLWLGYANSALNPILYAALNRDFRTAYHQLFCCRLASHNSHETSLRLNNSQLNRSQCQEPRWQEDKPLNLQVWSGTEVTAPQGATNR
Sequence of Histamine H1 receptor (Cavia porcellus) (P31389 whole entry): as the sequence (P31389 whole entry) above

Relative potency [1] | pD2 [2] | Kb (Histamine H1 receptor [3]) | Emax [4] | pKp [5] | Emax [6] | Kb (Histamine H3 receptor) | Kb (Histamine H1 receptor [7]) | Kb [8] | Relative potency [9] | Emax [10] | Emax [11] | Emax [12] | Emax [13] | Emax [14] | Compound
28% | 4.36 | 0.000741 µM | 36% | 6.12 | 20% | – | – | – | – | – | – | – | – | – | FC(F)(F)c1cccc(-c2nc(CCNC3CC3)c[nH]2)c1
– | – | 0.000891 µM | – | – | – | 6.17 µM | 0.000977 µM | 107 µM | – | – | – | – | – | – | NCCc1cnc(-c2cccc(C(F)(F)F)c2)[nH]1
128% | 3.48 | – | 100% | 6.23 | – | – | – | – | 94% | 97% | 80% | 65% | 80% | – | NCCc1c[nH]c(-c2cccc(C(F)(F)F)c2)n1
– | – | 0.000741 µM | 100% | 5.97 | – | 6.31 µM | 0.00126 µM | 155 µM | – | – | – | – | 64% | – | NCCc1c[nH]c(-c2cccc(Br)c2)n1
95% | 4.56 | 0.0012 µM | 88% | 6.39 | 67% | 1.12 µM | 0.00141 µM | 26.9 µM | 169% | – | – | – | 54% | 64% | CN(C)CCc1c[nH]c(-c2cccc(C(F)(F)F)c2)n1
30% | 4.55 | 0.00105 µM | 63% | 5.68 | 40% | 2.34 µM | – | 69.2 µM | – | – | – | – | – | – | CCNCCc1c[nH]c(-c2cccc(C(F)(F)F)c2)n1
174% | 4.04 | 0.000912 µM | 97% | 6.47 | 77% | 4.37 µM | 0.000832 µM | 115 µM | 217% | – | – | – | 59% | 66% | CNCCc1c[nH]c(-c2cccc(C(F)(F)F)c2)n1
109% | 3.86 | 0.000741 µM | 95% | 6.17 | 71% | 11.7 µM | 0.000977 µM | 112 µM | 43% | – | – | – | 76% | 75% | CNCCc1c[nH]c(-c2cccc(Br)c2)n1
87% | 4.74 | 0.000708 µM | 81% | 6.2 | 58% | 1.45 µM | 0.00115 µM | 64.6 µM | 31% | – | – | – | 58% | 49% | CN(C)CCc1c[nH]c(-c2cccc(Br)c2)n1
– | – | – | 100% | – | 100% | – | – | – | – | – | – | – | 100% | 100% | NCCc1c[nH]cn1
